Reference: EP4685144A1, “NON-FLUORESCENT COMPOUND AND USES THEREOF” (SFC Co., Ltd., priority 2023, dated 2024)

Experiments:
[1] = Photophysical properties of the non-fluorescent compounds in DMSO solvent; assay type: physicochemical; parameters: εmax: unit not given here; conditions: for Quantum Yield(Φ) / εmax / λabs: DMSO solvent
From the text: The photophysical properties measured in DMSO solvent for the non-fluorescent compounds synthesized according to the above synthesis examples are shown in Table 1 below.

[2] = commercially available quencher; cited from earlier work

| maximum absorption wavelength [1] | Quantum Yield(Φ) [1] | εmax [1] | λabs [1] [nm] | SMILES | absorbs light in the range [2] |
| --- | --- | --- | --- | --- | --- |
| above 650 nm | 0.002 | 37,000 | 672 | CCn1c(=CC=CC2=[N+](CCCC(=O)O)c3c(ccc4c3c3ccccc3n4C)C2(C)C)c2cccc3cccc1c32 [Dye 17] |  |
|  | 0.002 | 24,000 | 630 | CC[n+]1c(C=CC=c2c3cccc4cccc(c43)n2CCCCCC(=O)O)sc2ccc3ccccc3c21 [Dye 61] |  |
|  | 0.005 | 74,000 | 680 | CCn1c(=CC=CC=CC2=[N+](CCCCCC(=O)O)c3cc4c(cc3C2(C)C)-c2ccccc2C4(C)C)c2cccc3cccc1c32 [Dye 18] |  |
| above 650 nm | 0.001 | 68,000 | 692 | Cn1c(=CC=CC2=[N+](CCCCCC(=O)O)c3c(ccc4ccccc34)C2(C)C)c2cccc3cccc1c32 [Dye 16] |  |
|  | 0.001 | 65,000 | 690 | Cn1c(=CC=CC2=[N+](CCCCCC(=O)O)c3ccc4sc5ccccc5c4c3C2(C)C)c2cccc3cccc1c32 [Dye 48] |  |
|  |  |  |  | CCN(CC)c1ccc2nc3ccc(/N=N/c4ccc(N(C)CCCC(=O)O)cc4)cc3[n+](-c3ccccc3)c2c1 [BHQ-3] | 650-700 nm |
|  | 0.005 | 75,000 | 672 | Cn1c(=CC=CC2=[N+](CCCCCC(=O)O)c3ccccc3C2(C)C)c2cccc3cccc1c32 [Dye 6] |  |
|  | 0.002 | 53,000 | 676 | Cn1c(=CC=CC2=Nc3c(ccc[n+]3CCCCCC(=O)O)C2(C)C)c2cccc3cccc1c32 [Dye 12] |  |
|  | 0.007 | 42,000 | 600 | C[n+]1c(C=CC=c2c3cccc4cccc(c43)n2CCCCCC(=O)O)oc2c3ccccc3ccc21 [Dye 60] |  |
| above 650 nm | 0.006 | 28,000 | 664 | C[n+]1c(C=CC=c2c3cccc4cccc(c43)n2CCCCCC(=O)O)sc2ccccc21 [Dye 2] |  |
